{"source": "ChEMBL document CHEMBL5055686", "about": "“Discovery of AL-GDa62 as a Potential Synthetic Lethal Lead for the Treatment of Gastric Cancer” (J Med Chem, 2021)", "key": {"[1]": {"system": "MCF-10A", "assay": "Induction apoptosis in human CDH-/- MCF10A cells assessed as early apoptotic cells at 6.25 uM measured after 48 hrs by flow cytometry-based annexin-V-FITC/propidium iodide (PI) apoptosis assay (reference value: 2.9%)", "type": "functional"}, "[2]": {"target": "Actin-related protein 2/3 complex subunit 5 (Homo sapiens) (UniProt O15511)", "assay": "Binding affinity to ARPC5 in human spontaneously immortalized CDH-/- MCF10A cell lysates assessed as change in melting temperature at 3.125 uM for 3 hrs by thermal proteome profiling assay", "settings": "MCF-10A"}, "[3]": {"system": "MCF-10A", "assay": "Binding affinity to TCOF1 in human spontaneously immortalized CDH-/- MCF10A cell lysates assessed as change in melting temperature at 3.125 uM for 3 hrs by thermal proteome profiling assay"}, "[4]": {"system": "MCF-10A", "assay": "Induction apoptosis in human spontaneously immortalized wild type MCF10A cells assessed as early apoptotic cells at 6.25 uM measured after 48 hrs by flow cytometry-based annexin-V-FITC/propidium iodide (PI) apoptosis assay (reference value: 1.2%)", "type": "functional"}, "[5]": {"system": "MCF-10A", "assay": "Induction apoptosis in human CDH-/- MCF10A cells assessed as viable cells at 6.25 uM measured after 48 hrs by flow cytometry-based annexin-V-FITC/propidium iodide (PI) apoptosis assay (reference value: 93.6%)", "type": "functional", "settings": "read-out: Activity"}, "[6]": {"system": "MCF-10A", "assay": "Antitumor activity against human spontaneously immortalized CDH-/- MCF10A cells assessed as cell numbers measured after 48 hrs", "type": "functional, cell-based", "settings": "Homo sapiens, MCF-10A, 48 h; read-out: EC50"}, "[7]": {"assay": "Anticancer activity against mouse mammary organoids assessed as reduction in growth by measuring TdTom CdhI-/- at 12.5 uM incubated for 48 hrs", "type": "functional, Mammary gland", "set-up": "scale not given: the % may be the effect or the level left"}, "[8]": {"system": "NCI-N87", "assay": "Antitumor activity against human wild type NCI-N87 cells assessed as cell numbers measured after 48 hrs", "type": "functional, cell-based", "settings": "NCI-N87, 48 h"}, "[9]": {"system": "MCF-10A", "assay": "Induction apoptosis in human spontaneously immortalized wild type MCF10A cells assessed as necrotic cells at 3.25 uM measured after 48 hrs by flow cytometry-based annexin-V-FITC/propidium iodide (PI) apoptosis assay", "type": "functional"}, "[10]": {"system": "NCI-N87", "assay": "Antitumor activity against human CDH-/- NCI-N87cells assessed as cell numbers measured after 48 hrs", "type": "functional, cell-based", "settings": "NCI-N87, 48 h"}, "[11]": {"system": "MCF-10A", "assay": "Induction apoptosis in human spontaneously immortalized wild type MCF10A cells assessed as late apoptotic cells at 6.25 uM measured after 48 hrs by flow cytometry-based annexin-V-FITC/propidium iodide (PI) apoptosis assay (reference value: 4.2%)", "type": "functional"}, "[12]": {"system": "MCF-10A", "assay": "Induction apoptosis in human spontaneously immortalized wild type MCF10A cells assessed as necrotic cells at 6.25 uM measured after 48 hrs by flow cytometry-based annexin-V-FITC/propidium iodide (PI) apoptosis assay", "type": "functional"}, "[13]": {"system": "MCF-10A", "assay": "Induction apoptosis in human spontaneously immortalized wild type MCF10A cells assessed as viable cells at 6.25 uM measured after 48 hrs by flow cytometry-based annexin-V-FITC/propidium iodide apoptosis assay (reference value: 94.4%)", "type": "functional", "settings": "read-out: Activity"}, "[14]": {"system": "MCF-10A", "assay": "Induction of apoptosis in human spontaneously immortalized wild type MCF10A cells assessed as apoptotic cells at 12.5 uM measured after 48 hrs by flow cytometry-based annexin-V-FITC/propidium iodide (PI) apoptosis assay", "type": "functional"}, "[15]": {"system": "MCF-10A", "assay": "Antitumor activity against human spontaneously immortalized CDH-/- MCF10A cells assessed as cell numbers at 3.13 uM measured after 48 hrs", "type": "functional"}, "[16]": {"system": "MCF-10A", "assay": "Induction of apoptosis in human spontaneously immortalized CDH-/- MCF10A cells assessed as apoptotic cells at 12.5 uM measured after 48 hrs by flow cytometry-based annexin-V-FITC/propidium iodide (PI) apoptosis assay", "type": "functional"}, "[17]": {"species_on_record": "Homo sapiens", "assay": "Inhibition of SUMOylation of GST-tagged RanGAP1 (unknown origin) protein using SUMO1 and UBC9 up to 3.13 uM by Western blotting analysis"}, "[18]": {"system": "MCF-10A", "assay": "Induction apoptosis in human CDH-/- MCF10A cells assessed as late apoptotic cells at 6.25 uM measured after 48 hrs by flow cytometry-based annexin-V-FITC/propidium iodide (PI) apoptosis assay (reference value: 3.2%)", "type": "functional"}, "[19]": {"assay": "Ratio of EC50 for antitumor activity against human spontaneously immortalized wild type MCF10A cells assessed as cell numbers measured after 48 hrs to antitumor activity against human spontaneously immortalized CDH-/- MCF10A cells assessed as cell numbers measured after 48 hrs", "type": "functional, MCF-10A"}, "[20]": {"assay": "Ratio of EC50 for antitumor activity against human NCI-N87 cells assessed as cell numbers measured after 48 hrs to antitumor activity against human CDH-/- NCI-N87 cells assessed as cell numbers measured after 48 hrs", "type": "functional"}, "[21]": {"assay": "Anticancer activity against mouse gastric organoids assessed as reduction in growth by measuring TdTom CdhI-/- at 1.56 uM incubated for 48 hrs", "type": "functional, Gastric gland", "set-up": "scale not given: the % may be the effect or the level left"}, "[22]": {"target": "SUMO-conjugating enzyme UBC9 (Homo sapiens) (UniProt P63279)", "sequence (P63279 whole entry)": "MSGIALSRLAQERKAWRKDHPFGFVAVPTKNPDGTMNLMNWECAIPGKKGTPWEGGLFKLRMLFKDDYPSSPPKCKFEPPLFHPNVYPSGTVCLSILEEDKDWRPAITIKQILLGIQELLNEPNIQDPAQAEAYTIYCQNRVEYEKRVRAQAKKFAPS", "assay": "Binding affinity to SUMO-conjugating UBC9 in human spontaneously immortalized CDH-/- MCF10A cell lysates assessed as change in melting temperature at 3.125 uM for 3 hrs by thermal proteome profiling assay", "settings": "MCF-10A"}, "[23]": {"system": "MCF-10A", "assay": "Antitumor activity against human spontaneously immortalized wild type MCF-10A cells assessed as cell numbers measured after 48 hrs", "type": "functional, cell-based", "settings": "Homo sapiens, MCF-10A, 48 h; read-out: EC50"}}, "note": "Activity calls are given as the source filed them. No cut-off for these calls is given here."}
{"smiles": "Cc1cc(NCc2ccc(F)cc2)c2cc(OCCCN3CCCC3)ccc2n1", "values": [{"measurement": "Activity", "setting": "[1]", "result": 24.7, "unit": "%"}, {"measurement": "ΔTm", "setting": "[2]", "result": 3.72, "unit": "°C"}, {"measurement": "ΔTm", "setting": "[3]", "result": 8.32, "unit": "°C"}, {"measurement": "Activity", "setting": "[4]", "result": 23.5, "unit": "%"}, {"measurement": "viability at 6.25 µM", "setting": "[5]", "result": 26.7, "unit": "%"}, {"measurement": "EC50", "setting": "[6]", "result": 2, "unit": "µM"}, {"measurement": "Activity", "setting": "[7]", "result": 21.3, "unit": "%"}, {"measurement": "EC50", "setting": "[8]", "result": 8.5, "unit": "µM"}, {"measurement": "Activity", "setting": "[9]", "result": 5, "unit": "%"}, {"measurement": "EC50", "setting": "[10]", "result": 16.4, "unit": "µM"}, {"measurement": "Activity", "setting": "[11]", "result": 11.2, "unit": "%"}, {"measurement": "Activity", "setting": "[12]", "result": 32, "unit": "%"}, {"measurement": "viability at 6.25 µM", "setting": "[13]", "result": 64.9, "unit": "%"}, {"measurement": "Activity", "setting": "[14]", "result": ">90", "unit": "%"}, {"measurement": "inhibition at 3.13 µM", "setting": "[15]", "result": 70, "unit": "%"}, {"measurement": "Activity", "setting": "[16]", "result": ">90", "unit": "%"}, {"measurement": "inhibition", "setting": "[17]", "result": "Active"}, {"measurement": "Activity", "setting": "[18]", "result": 48, "unit": "%"}, {"measurement": "Ratio EC50", "setting": "[19]", "result": 1.6}, {"measurement": "Ratio EC50", "setting": "[20]", "result": 1.9}, {"measurement": "Activity", "setting": "[21]", "result": 40, "unit": "%"}, {"measurement": "ΔTm", "setting": "[22]", "result": 5.71, "unit": "°C"}, {"measurement": "EC50", "setting": "[23]", "result": 3.2, "unit": "µM"}]}
